Like-named read-outs stand apart in the source and are kept apart here.
Tests used:
[1] = biological target: T1, truncated human 11β-HSD-1 enzyme (24-287AA) (Homo sapiens, UniProt P28845); assay: Human 11β-HSD-1 enzymatic SPA assay; type: biochemical
T1 construct: truncated human 11β-HSD-1 enzyme (24-287AA); made in house; host or cells: E. coli (lysate)
Description: (§1) The ability of test compounds to inhibit human 11β-HSD-1 enzymatic activity in vitro was evaluated in a Scintillation Proximity Assay (SPA). […] The reaction was stopped by adding a non-specific 11β-HSD inhibitor, 18β-glycyrrhetinic acid. The tritiated cortisol was captured by a mixture of an anti-cortisol monoclonal antibody and SPA beads coated with anti-mouse antibodies. The reaction plate was shaken at room temperature and the radioactivity bound to SPA beads was then measured on a β-scintillation counter. The 11β-HSD-1 assay was carried out in 96-well microtiter plates in a total volume of 220 μl. […] In order to drive the reaction in the forward direction, 1 mM G-6-P was also added. Solid compound was dissolved in DMSO to make a 10 mM stock followed by a subsequent 10-fold dilution with 3% DMSO in Tris/EDTA buffer (pH 7.4). 22 μl of titrated compounds was then added in triplicate to the substrate. Reactions were initiated by the addition of 10 μl of 0.1 mg/ml E. coli lysates overexpressing 11β-HSD-1 enzyme. After shaking and incubating plates for 30 minutes at room temperature, reactions were stopped by adding 10 μl of 1 mM glycyrrhetinic acid. The product, tritiated cortisol, was captured by adding 10 μl of 1 μM monoclonal anti-cortisol antibodies and 100 μl SPA beads coated with anti-mouse antibodies. After shaking for 30 minutes, plates were read on a liquid scintillation counter Topcount. Percent inhibition was calculated based on the background and the maximal signal. Wells that contained substrate without compound or enzyme were used as the background, while the wells that contained substrate and enzyme without any compound were considered as maximal signal. Percent of inhibition of each compound was calculated relative to the maximal signal and IC50 curves were generated. This assay was applied to 11β-HSD-2 as well, whereby tritiated cortisol and NAD^+ were used as substrate and cofactor, respectively.

human 11β-HSD-2 = biological target: T2, human 11β-HSD-2 (Homo sapiens, UniProt P80365); assay: Human 11β-HSD-2 enzymatic SPA assay; type: biochemical
T2 sequence (P80365 1-405): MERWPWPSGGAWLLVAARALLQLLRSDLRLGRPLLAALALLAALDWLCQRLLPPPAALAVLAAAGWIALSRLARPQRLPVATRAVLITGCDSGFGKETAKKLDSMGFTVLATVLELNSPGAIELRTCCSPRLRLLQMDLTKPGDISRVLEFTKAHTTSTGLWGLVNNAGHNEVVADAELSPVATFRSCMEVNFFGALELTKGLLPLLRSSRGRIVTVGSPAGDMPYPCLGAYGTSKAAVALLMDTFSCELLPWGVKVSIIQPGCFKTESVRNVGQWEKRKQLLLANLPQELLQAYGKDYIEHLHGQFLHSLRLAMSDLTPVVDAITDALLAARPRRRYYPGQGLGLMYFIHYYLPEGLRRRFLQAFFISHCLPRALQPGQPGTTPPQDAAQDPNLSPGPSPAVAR
Description: as §1

T1 sequence (P28845 24-287): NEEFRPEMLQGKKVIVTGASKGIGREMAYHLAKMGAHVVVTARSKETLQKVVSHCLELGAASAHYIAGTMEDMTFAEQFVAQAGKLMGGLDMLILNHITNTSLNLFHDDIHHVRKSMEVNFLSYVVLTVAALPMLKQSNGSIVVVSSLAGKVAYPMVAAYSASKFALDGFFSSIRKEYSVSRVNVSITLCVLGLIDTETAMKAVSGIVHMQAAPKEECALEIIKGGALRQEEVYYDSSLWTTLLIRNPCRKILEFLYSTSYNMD

Structure (SMILES)	IC50 ([1]; human enzyme, SPA) [nM]	IC50 (human 11β-HSD-2; human enzyme, SPA) [nM]	IC50 [1] [nM]	IC50 (human 11β-HSD-2) [nM]
CC1(C)C(=O)N(C2CCCCCC2)CC1COc1ccccc1 (centres unmarked) [1-cycloheptyl-3,3-dimethyl-4-(phenoxymethyl)pyrrolidin-2-one]	95	> 8750		
CN(CC1CN(C2CCCCCC2)C(=O)C1(C)C)c1ccccc1F (centres unmarked) [1-cycloheptyl-4-{[(2-fluorophenyl)(methyl)amino]methyl}-3,3-dimethylpyrrolidin-2-one]	73	> 10000		
C[S+]([O-])[C@]12C[C@@H]3C[C@H](C1)[C@@H](NC(=O)C(C)(C)Oc1ccc(F)cc1Cl)[C@@H](C3)C2 (some centres unmarked) [2-(2-chloro-4-fluorophenoxy)-2-methyl-N-[(E)-5-(methylsulfinyl)-2-adamantyl]propanamide]	28			
CC(C)(Oc1ccc(Cl)cc1)C(=O)NC1C2CC3CC1CC(Cc1nn[nH]n1)(C3)C2 (centres unmarked) [2-(4-chlorophenoxy)-2-methyl-N-[(E)-5-(2H-tetraazol-5-ylmethyl)-2-adamantyl]propanamide]	41	> 100000		
CC(C(=O)N[C@@H]1[C@@H]2C[C@@H]3C[C@H]1C[C@@](O)(C3)C2)N1C[C@@H](C)O[C@@H](C)C1 (stereo partly drawn) [2-[(cis)-2,6-dimethylmorpholin-4-yl]-N-[(E)-5-hydroxy-2-adamantyl]propanamide]	110	> 10000		
CC(C(=O)NC1C2CC3CC1CC(O)(C3)C2)N1CCCCCC1 (centres unmarked) [2-azepan-1-yl-N-[(E)-5-hydroxy-2-adamantyl]propanamide]	92	> 10000		
CC(C)(Oc1ccc(Cl)cc1)C(=O)NC1C2CC3CC1CC(CS(=O)(=O)NCc1ccc(C(=O)O)cc1)(C3)C2 (centres unmarked) [4-[({[((E)-4-{[2-(4-chlorophenoxy)-2-methylpropanoyl]amino}-1-adamantyl)methyl]sulfonyl}amino)methyl]benzoic acid]	48	18000		
CC12CCC(N3CC(COc4ccc(C#N)cn4)C(C)(C)C3=O)(CC1)CC2 (centres unmarked) [6-{[4,4-dimethyl-1-(4-methylbicyclo[2.2.2]oct-1-yl)-5-oxopyrrolidin-3-yl]methoxy}nicotinonitrile]	77	8470		
CC1(C)C(=O)N(C2C3CCCC2CC(C(N)=O)C3)CC1COc1ccc(C#N)cn1 (centres unmarked) [9-(4-{[(5-cyanopyridin-2-yl)oxy]methyl}-3,3-dimethyl-2-oxopyrrolidin-1-yl)bicyclo[3.3.1]nonane-3-carboxamide]			51	8280
CC1(C)C(=O)N(C2C3CC4CC2CC(C(N)=O)(C4)C3)CC1COc1ccc(-n2cncn2)cc1 (centres unmarked) [(E)-4-(3,3-dimethyl-2-oxo-4-{[4-(1H-1,2,4-triazol-1-yl)phenoxy]methyl}pyrrolidin-1-yl) adamantane-1-carboxamide]		1600	41	
CC1(C)C(=O)N(C2C3CC4CC2CC(C(N)=O)(C4)C3)CC1COc1ccc(-n2ccnc2)cc1 (centres unmarked) [(E)-4-(4-{[4-(1H-imidazol-1-yl)phenoxy]methyl}-3,3-dimethyl-2-oxopyrrolidin-1-yl)adamantane-1-carboxamide]	76			
CC1(C)C(=O)N(C2C3CC4CC2CC(C#N)(C4)C3)CC1COc1ccc(C#N)cn1 (centres unmarked) [(E)-4-(4-{[(5-cyanopyridin-2-yl)oxy]methyl}-3,3-dimethyl-2-oxopyrrolidin-1-yl) adamantane-1-carbonitrile]	29	5270		
Cc1ccccc1CN1CCC(C)(C(=O)NC2C3CC4CC(C3)C(C(N)=O)C2C4)C1=O (centres unmarked) [(E)-4-(aminocarbonyl)-2-adamantyl]-3-methyl-1-(2-methylbenzyl)-2-oxopyrrolidine-3-carboxamide]	23	12000		
CC(C)(Oc1ccc(Cl)cc1)C(=O)N[C@@H]1[C@@H]2C[C@@H]3C[C@H]1C[C@@](CS(N)(=O)=O)(C3)C2 [N-{(E)-5-[(aminosulfonyl)methyl]-2-adamantyl}-2-(4-chlorophenoxy)-2-methyl propanamide]	96			
CC(C)(C)OC(=O)Nc1ccc(OC(C)(C)C(=O)N[C@@H]2[C@@H]3C[C@@H]4C[C@H]2C[C@@](C(N)=O)(C4)C3)cc1 [tert-butyl 4-(2-{[(E)-5-(aminocarbonyl)-2-adamantyl]amino}-1,1-dimethyl-2-oxoethoxy)phenylcarbamate]		37000		

The remaining lines, values ahead:

IC50 ([1]; human enzyme, SPA) [nM]	IC50 (human 11β-HSD-2; human enzyme, SPA) [nM]	IC50 [1] [nM]	IC50 (human 11β-HSD-2) [nM]	Structure (SMILES)
82	> 10000			CC(C)(C(=O)N[C@@H]1[C@@H]2C[C@@H]3C[C@H]1C[C@@](C(=O)O)(C3)C2)c1ccccc1 [(E)-4-(2-methyl-2-phenyl-propionylamino)-adamantane-1-carboxylic acid]
23	6300			CC1(C(=O)N[C@@H]2[C@@H]3C[C@@H]4C[C@H]2C[C@@](C(N)=O)(C4)C3)CCN(Cc2ccccc2Cl)C1=O (some centres unmarked) [(E)-4-(aminocarbonyl)-2-adamantyl]-1-(2-chlorobenzyl)-3-methyl-2-oxopyrrolidine-3-carboxamide]
	10000			CC1(C(=O)N[C@@H]2[C@@H]3C[C@@H]4C[C@H]2C[C@@](C(N)=O)(C4)C3)CCN(Cc2cccc(Cl)c2)C1=O (some centres unmarked) [(E)-4-(aminocarbonyl)-2-adamantyl]-1-(3-chlorobenzyl)-3-methyl-2-oxopyrrolidine-3-carboxamide]
58	> 10000			CC(C)(C(=O)NC1C2CC3CC1CC(C(=O)O)(C3)C2)N1CCC(F)C1 [(E)-4-({2-[(3R)-3-Fluoropyrrolidin-1-yl]-2-methylpropanoyl}amino)adamantane-1-carboxylic acid]
44	11000			CC(C)(Oc1cccc(C(F)(F)F)c1)C(=O)NC1C2CC3CC1CC(C(N)=O)(C3)C2 (centres unmarked) [(E)-4-({2-methyl-2-[3-(trifluoromethyl)phenoxy]propanoyl}amino)adamantane-1-carboxamide]
40	2600			CC(C)(Oc1ccc(OC(F)(F)F)cc1)C(=O)NC1C2CC3CC1CC(C(N)=O)(C3)C2 (centres unmarked) [(E)-4-({2-methyl-2-[4-(trifluoromethoxy)phenoxy]propanoyl}amino)adamantane-1-carboxamide]
	> 30000			CC1CN(c2ccccn2)CCN1C(C)(C)C(=O)NC1C2CC3CC1CC(C(=O)O)(C3)C2 [(E)-4-({2-methyl-2-[(2S)-2-methyl-4-pyridin-2-ylpiperazin-1-yl]propanoyl}amino) adamantane-1-carboxylic acid]
89	90000			NC(=O)C12CC3CC(C1)C(NC(=O)C1(Oc4ccc(Cl)cc4)CCC1)C(C3)C2 (centres unmarked) [(E)-4-({[1-(4-chlorophenoxy)cyclobutyl]carbonyl}amino)adamantane-1-carboxamide]
33	> 30000			NC(=O)[C@]12C[C@@H]3C[C@H](C1)[C@@H](NC(=O)C1(c4ccc(Cl)cc4)CC1)[C@@H](C3)C2 [(E)-4-({[1-(4-chlorophenyl)cyclopropyl]carbonyl}amino)adamantane-1-carboxamide]
102				O=C(O)C12CC3CC(C1)C(NC(=O)C1(c4ccccc4)CC1)C(C3)C2 (centres unmarked) [(E)-4-[(1-phenyl-cyclopropanecarbonyl)-amino]-adamantane-1-carboxylic acid]
	44000			CC(C)(C(=O)N[C@@H]1[C@@H]2C[C@@H]3C[C@H]1C[C@@](C(N)=O)(C3)C2)c1ccc(-c2cccnc2)cc1 [(E)-4-{[2-methyl-2-(4-pyridin-3-ylphenyl)propanoyl]amino}adamantane-1-carboxamide]
